Experimental findings from US11730751B2, “Treating and preventing motor neuron diseases using nicotinamide riboside” (Elysium Health, Inc., priority 2017, dated 2023) are described below.

What all share (format): in vivo
In assay [1] the test system is transgenic SOD1 G93A mice. Put plainly: Motor behavior and performance tests in SOD1 mice (FIG. 3-9). The following applies: in words; for motor functions of SOD1 mice: FIG. 3-9, benefits only in the last weeks of the experiment. From the text:
(§1) 1. B6.Cg-Tg(SOD1*G93A)1Gur/J (https://www.jax.org/strain/004435)
(§2) Mice hemizygous for this SOD1-G93A (also called G93A-SOD1) transgene were viable and fertile, with transgenic expression of a G93A mutant form of human SOD1. This founder line (often referred to as G1H) was reported to have high transgene copy number. […] Motor neuron degeneration has been associated with function and/or degeneration of astrocytes, the major glial cell type of the nervous system. […] Female hemizygotes were poor breeders, and rarely produced more than one litter before the onset of disease. […] The pattern of gene expression in SOD1G93A activated microglia represented a unique ALS-specific signature. These SOD1-G93A (also called G93A-SOD1) transgenic mice were useful in studying neuromuscular disorders, including Amyotrophic Lateral Sclerosis.
(§3) Nicotinamide riboside, pterostilbene, and resveratrol were administered orally: 185 mg of nicotinamide riboside and/or 30 mg of pterostilbene or resveratrol per Kg per day were administered to the mice.
This score was based on the scale of Weydt et al. (Neuroreport 14: 1051-1054, 2003). […] When the animals reached a score of “4”, the access to food and water was facilitated by placing food pellets on the cage floor to all transgenic mice. Reaching a score of “5”, the animals were euthanized for ethical reasons. […] Changes over time in the different groups were monitored weekly from week 8 (P50) to week 20 (P140).
This score was based on the SHIRPA tail scale, procedure developed by Rogers et al. (Mamm. Genome 8: 711-713, 1997) in the MRC, United Kingdom. […] Changes over time in the different groups were monitored weekly.
Functions of the test included evaluating balance, grip strength and motor coordination of the subjects; especially in testing the effect of experimental drugs. For this test (Rota Rod, Harvard Apparatus, Holliston, Mass.), each animal was given three trials and the maximum period (seconds) that it could remain on a rotating axle (3.5 cm diameter; speed of rotation: 15 rpm) without falling was measured. Each mouse was given up to three attempts for an arbitrary limit of 1200 seconds and the longest period was recorded. Changes over time in the different groups were monitored weekly.
Motor function and deficit in rodent models of CNS disorders were evaluated. […] Each mouse was given up to three attempts for a maximum of 180 seconds and the longest period was recorded. Changes over time in the different groups were monitored weekly.
For this locomotor rating test, a flat rolling band (Treadmill, Harvard Apparatus) was used and set at an angle of 5°. […] Each mouse was given two trials and the maximum distance run and the number of electrical stimuli received during the test (not exceeding 3 seconds) were recorded. […]

The subject of assay [2] is transgenic SOD1 G93A mice. As to the kind of experiment: Electrophysiological measurements (CMAP, gastrocnemius muscle after sciatic nerve stimulation) in SOD1 mice. The following applies: in words, FIG. 9. On the procedure:
Nicotinamide riboside, pterostilbene, and resveratrol were administered orally: 185 mg of nicotinamide riboside and/or 30 mg of pterostilbene or resveratrol per Kg per day were administered to the mice. Changes over time in evoked Compound Motor Action Potential (CMAP) in the gastrocnemius muscle after stimulation of the sciatic nerve were monitored at P50 (week 8) and […] (week 18). Recordings were made on a 2-channel electromyography system (Keypoint portable; Medtronic, Skovlunde, Denmark), with the high-frequency filter set at 5 kHz and the low-frequency filter set at 2 Hz. Electric stimulation produces artifacts; to reduce them, rectangular monophase electric pulses with a pulse width of 0.04 ms were used. For CMAP measurements the stimulation electrode was placed on the nerve at distance of 1 cm from the recording electrode placed on the gastrocnemius muscle through percutaneous puncture in the distal third of the paw, ipsilaterally to the surgical procedure, with a coaxial needle. The data of CMAP amplitude were expressed in millivolts, the data of latency were expressed in milliseconds and the data of nerve conduction velocity were expressed in meters per second (m/s). The number of animals tested per time point and group was of n=4.

Assay [3] relates to transgenic SOD1 G93A mice. Put plainly: Survival time of SOD1 G93A mice (Kaplan-Meier). The following applies: in words, oral 185 mg NR and/or 30 mg PT or R per Kg per day, FIG. 1-2.
Source text: as §1, §2, §3

Regarding `NC(=O)c1ccc[n+]([C@@H]2O[C@H](CO)[C@@H](O)[C@H]2O)c1` [NR, nicotinamide riboside], the “motor functions of SOD1 mice” value in assay [1] is recorded as “improved motor functions”. In addition, the motor action potential result in assay [2] is “preserving motor action potential”.
As for `Oc1ccc(C=Cc2cc(O)cc(O)c2)cc1` [Resveratrol, resveratrol, reference compound], the “motor functions of SOD1 mice” value in assay [1] is recorded as “showed no benefit”. In addition, the “statistical comparison with the same group without R (SOD1 vs SOD1+R; SOD1+NR vs SOD1+NR+R)” value in assay [1] (Student's t-test) was “did not show significant differences”. The “survival of SOD1 mice” value in assay [3] is given as “showed no benefit”.
On to `COc1cc(/C=C/c2ccc(O)cc2)cc(OC)c1` [PT, pterostilbene], for which, in assay [1], the “motor functions of SOD1 mice” value is “but not PT alone improved motor functions”. The “survival of SOD1 mice” value in assay [3] is listed as “did not improve survival”.
